Source: patent publication EP4603105A1, “PHARMACEUTICAL COMPOSITION CONTAINING CYCLIC COMPOUND HAVING SELECTIVE KRAS INHIBITORY EFFECT AGAINST HRAS AND NRAS” (CHUGAI SEIYAKU KABUSHIKI KAISHA, priority 2022, dated 2024)
*1 amine or outer side, *2 acyl side, *3 side chain or, on linkers, in order; H or OH if unused. Where a SMILES comes first, the peptide text is derived from it. Bridges are numbered along the chain shown (N, C = ends). [ ]: non-standard residue; d: D form. The star is where a group is joined. hPhe(3-Cl-4-CF3) = N[C@@H](CCc1ccc(C(F)(F)F)c(Cl)c1)C(=O)O; NPrPhe(4-CF3) = CCCN[C@@H](Cc1ccc(C(F)(F)F)cc1)C(=O)O; NMeGly(cPent) = CN[C@H](C(=O)O)C1CCCC1; Pro(4,4-F2) = O=C(O)[C@@H]1CC(F)(F)CN1; X9 = CC1(C)CN([*:1])[C@@H]1C(=O)[*:2]; NEtLeu = CCN[C@@H](CC(C)C)C(=O)O; NMeD = CN[C@@H](CC(=O)O)C(=O)O; NMeL = CN[C@@H](CC(C)C)C(=O)O; NMeNva = CCC[C@H](NC)C(=O)O; Morpholide = C1CN(*)CCO1; NMeA = CN[C@@H](C)C(=O)O; Ac5c = NC1(C(=O)O)CCCC1; Aze = O=C(O)[C@@H]1CCN1; Ac4c = NC1(C(=O)O)CCC1; NPrGly = CCCNCC(=O)O; Sar = CNCC(=O)O

Experiments:
HRAS wild-type protein = HRAS wild-type protein (Homo sapiens, UniProt P01112); assay: Binding to HRAS by surface plasmon resonance (SPR), KD and KD ratio to KRAS
Method in brief: (§1)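 Captured GDP-RAS (~100–300 RU) was exposed to increasing compound concentrations, 75 s per step, in running buffer with 10 µM GDP, 10 mM MgCl2 and 4% DMSO at pH 7.4.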

[1] = system: human lung cancer strain NCI-H441; assay type: cell-based
Method in brief: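 Step one: dispense the test compound in serial DMSO dilutions. Step three: add the reagent and measure […].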

[2] = target: GDP-bound NRAS wild-type protein (Homo sapiens, UniProt P01111); assay: Binding to NRAS by surface plasmon resonance (SPR), KD and KD ratio to KRAS
Method in brief: as §1

[3] = ratio of the KD value with respect to HRAS wild-type protein to the KD value with respect to KRAS
[4] = ratio of the KD value with respect to GDP-bound NRAS wild-type protein to the KD value with respect to KRAS
[5] = ratio of KD value for HRAS wild-type protein to KD value for KRAS (SPR)
[6] = ratio of KD value for GDP-bound NRAS wild-type protein to KD value for KRAS (SPR)
[7] = ratio of KD for HRAS wild-type protein to KD for KRAS
[8] = ratio of KD for GDP-bound NRAS wild-type protein to KD for KRAS

Chain of GDP-bound NRAS wild-type protein (P01111 whole entry): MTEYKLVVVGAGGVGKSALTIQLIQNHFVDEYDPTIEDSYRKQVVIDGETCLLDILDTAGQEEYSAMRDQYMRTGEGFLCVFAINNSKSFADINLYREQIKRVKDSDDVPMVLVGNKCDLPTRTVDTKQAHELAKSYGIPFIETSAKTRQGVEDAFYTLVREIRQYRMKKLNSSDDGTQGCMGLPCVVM
Chain of HRAS wild-type protein (P01112 whole entry): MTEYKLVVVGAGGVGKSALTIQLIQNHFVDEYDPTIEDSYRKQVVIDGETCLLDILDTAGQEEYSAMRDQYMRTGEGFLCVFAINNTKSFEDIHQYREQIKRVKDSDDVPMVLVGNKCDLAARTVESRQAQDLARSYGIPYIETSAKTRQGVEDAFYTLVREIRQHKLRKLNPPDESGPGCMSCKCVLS

| Structure (SMILES) | HRAS /KRAS (HRAS wild-type protein; [3]) | IC50 [1] [nM] | NRAS /KRAS [2, 4] | HRAS /KRAS (HRAS wild-type protein; [5]) | NRAS /KRAS [2, 6] | HRAS /KRAS (HRAS wild-type protein; [7]) | NRAS /KRAS [2, 8] |
| --- | --- | --- | --- | --- | --- | --- | --- |
| CCC[C@H]1C(=O)N[C@@H]([C@@H](C)CC)C(=O)N(CCC)CC(=O)N(C)CC(=O)N(CCC)[C@@H](Cc2ccc(C(F)(F)F)cc2)C(=O)N(C)CC(=O)N[C@@H](CCc2ccc(C(F)(F)F)c(Cl)c2)C(=O)N2CCC[C@H]2C(=O)NC2(CCC2)C(=O)N(C)[C@@H](C2CCCC2)C(=O)N(C)[C@H](C(=O)N2CCOCC2)CC(=O)N1C [PP1947] ([NMeNva]I[NPrGly][Sar][NPrPhe(4-CF3)][Sar][hPhe(3-Cl-4-CF3)]P[Ac4c][NMeGly(cPent)][NMeD]-Morpholide; lactam N-11) | B (a compound having 3 or more and less than 10 is denoted as B) | 22 | B (a compound having 3 or more and less than 10 is denoted as B) |  |  |  |  |
| CCCN1C(=O)[C@@H]2CCN2C(=O)CN(C)C(=O)[C@H]([C@@H](C)CC)NC(=O)[C@H](CC(C)C)N(C)C(=O)C[C@@H](C(=O)N(C)C)NC(=O)[C@H](C2CCCC2)N(C)C(=O)C2(CCC2)NC(=O)[C@@H]2CC(F)(F)CN2C(=O)[C@H](CCc2ccc(C(F)(F)F)c(Cl)c2)NC(=O)CN(C)C(=O)[C@@H]1Cc1ccc(C(F)(F)F)cc1 [PP0388] ([NMeL]I[Sar][Aze][NPrPhe(4-CF3)][Sar][hPhe(3-Cl-4-CF3)][Pro(4,4-F2)][Ac4c][NMeGly(cPent)]D-NMe2; lactam N-11) | B (a compound having 3 or more and less than 10 is denoted as B) | 11.6 | C (A compound having a KD ratio of 0.1 or more and less than 3 is denoted as C) |  |  |  |  |
| CC[C@H](C)[C@@H]1NC(=O)[C@H](CC)N(C)C(=O)C[C@@H](C(=O)N(C)CC)N(C)C(=O)[C@H](C2CCCC2)N(C)C(=O)C2(CC(C)(C)C2)NC(=O)[C@@H]2C[C@H](C)CN2C(=O)[C@H](CCc2ccc(C(F)(F)F)c(Cl)c2)NC(=O)CN(C)C(=O)[C@H](Cc2ccc(C)cc2)N2CC/C=C\C[C@@H](C2=O)N(C)C(=O)CN(C)C1=O [PP1874] |  | 9.9 |  | A (a compound having 10 or more and less than 20 is denoted as A) | A (a compound having 10 or more and less than 20 is denoted as A) |  |  |
| CCC[C@H]1C(=O)N[C@@H]([C@@H](C)CC)C(=O)N(C)CC(=O)N(C)[C@H]2C/C=C\CCN(C2=O)[C@@H](Cc2ccc(C(F)(F)F)cc2)C(=O)N(C)CC(=O)N[C@@H](CCc2cc(F)c(C(F)(F)F)c(F)c2)C(=O)N2C[C@H](OCC)C[C@H]2C(=O)NC2(CC(C)(C)C2)C(=O)N(C)[C@@H](C(CC)CC)C(=O)N(C)[C@H](C(=O)N(C)C)CC(=O)N1C [PP2125] | A (a compound having 10 or more and less than 20 is denoted as A) | 4 | AA (a compound having 20 or more is denoted as AA) |  |  |  |  |
| CCO[C@@H]1C[C@H]2C(=O)NC3(CC(C)(C)C3)C(=O)N(C)[C@@H](C3CCCC3)C(=O)N(C)[C@H](C(=O)N(C)C)CC(=O)N(C)[C@H]3CCCC/C=C/c4ccc(cc4)C[C@@H](C(=O)N(C)CC(=O)N[C@@H](CCc4ccc(C(F)(F)F)c(OC)c4)C(=O)N2C1)N1CC/C=C\C[C@@H](C1=O)N(C)C(=O)CN(C)C(=O)[C@H]([C@@H](C)CC)NC3=O [PP1832] |  | 2.5 |  | B (a compound having 3 or more and less than 10 is denoted as B) | B (a compound having 3 or more and less than 10 is denoted as B) |  |  |
| CCO[C@@H]1C[C@H]2C(=O)NC3(CCC3)C(=O)N(C)[C@@H](C3CCCC3)C(=O)N(C)[C@H](C(=O)N(C)C)CC(=O)N(C)[C@@H](CC(C)C)C(=O)N[C@@H]([C@@H](C)CC)C(=O)N(C)CC(=O)N(C)[C@H]3C/C=C\CCN(C3=O)[C@@H](Cc3ccc(F)cc3)C(=O)N(C)CC(=O)N[C@@H](CCc3cc(F)c(C(F)(F)F)c(F)c3)C(=O)N2C1 [PP1488] |  | 23.2 |  | B (a compound having 3 or more and less than 10 is denoted as B) | A (a compound having 10 or more and less than 20 is denoted as A) |  |  |
| CCC[C@@H]1C[C@H]2C(=O)NC3(CCC3)C(=O)N(C)[C@@H](C3CCCC3)C(=O)N(C)[C@H](C(=O)N(C)C)CC(=O)N(C)[C@@H](CC(C)C)C(=O)N[C@@H]([C@@H](C)CC)C(=O)N(C)CC(=O)N(C)[C@H]3C/C=C\CCN(C3=O)[C@@H](Cc3ccc(C)cc3)C(=O)N(C)CC(=O)N[C@@H](CCc3cc(F)c(C(F)(F)F)c(F)c3)C(=O)N2C1 [PP2231] | B (a compound having 3 or more and less than 10 is denoted as B) | 16.2 | A (a compound having 10 or more and less than 20 is denoted as A) |  |  |  |  |
| CC[C@H](C)[C@@H]1NC(=O)[C@H](CC(C)C)N(C)C(=O)C[C@@H](C(=O)N2CCOCC2)N(C)C(=O)[C@H](C2CCCC2)N(C)C(=O)C2(CCC2)NC(=O)[C@@H]2C[C@@H](O)CN2C(=O)[C@H](CCc2cc(F)c(C(F)(F)F)c(F)c2)NC(=O)CN(C)C(=O)[C@H](Cc2ccc(C(F)(F)F)cc2)N2CCCC[C@@H](C2=O)N(C)C(=O)CN(C)C1=O [PP0868] |  | 70.8 |  |  |  | B (a compound having 3 or more and less than 10 is denoted as B) | C (A compound having a KD ratio of 0.1 or more and less than 3 is denoted as C) |
| CCCN1CC(=O)N2CC[C@H]2C(=O)N(CCC)[C@@H](Cc2ccc(C(F)(F)F)cc2)C(=O)N(C)CC(=O)N[C@@H](CCc2ccc(C(F)(F)F)c(Cl)c2)C(=O)N2CCC[C@H]2C(=O)NC2(CCCC2)C(=O)N(C)[C@@H](C2CCCC2)C(=O)N(C)[C@H](C(=O)N2CCOCC2)CC(=O)N(C)[C@@H](CC(C)C)C(=O)N[C@@H]([C@@H](C)CC)C1=O [PP0274] ([NMeL]I[NPrGly][Aze][NPrPhe(4-CF3)][Sar][hPhe(3-Cl-4-CF3)]P[Ac5c][NMeGly(cPent)][NMeD]-Morpholide; lactam N-11) |  | 9.1 |  |  |  | B (a compound having 3 or more and less than 10 is denoted as B) | C (A compound having a KD ratio of 0.1 or more and less than 3 is denoted as C) |
| CCO[C@@H]1C[C@H]2C(=O)NC3(CCC3)C(=O)N(C)[C@@H](C3CCCC3)C(=O)N(C)[C@H](C(=O)N3CCOCC3)CC(=O)N(C)[C@@H](CC)C(=O)N[C@@H]([C@@H](C)CC)C(=O)N(C)CC(=O)N(C)[C@H]3CCCCN(C3=O)[C@@H](Cc3ccc(C(F)(F)F)cc3)C(=O)N(C)CC(=O)N[C@@H](CCc3cc(F)c(C(F)(F)F)c(F)c3)C(=O)N2C1 [PP0708] | B (a compound having 3 or more and less than 10 is denoted as B) | 5.5 | B (a compound having 3 or more and less than 10 is denoted as B) |  |  |  |  |
| CCO[C@@H]1C[C@H]2C(=O)NC3(CC(C)(C)C3)C(=O)N(C)[C@@H](C(CC)CC)C(=O)N(C)[C@H](C(=O)N(C)C)CC(=O)N(C)[C@@H](C(C)C)C(=O)N[C@@H]([C@@H](C)CC)C(=O)N(C)CC(=O)N(C)[C@H]3C/C=C\CCN(C3=O)[C@@H](Cc3ccc(C)cc3)C(=O)N(C)CC(=O)N[C@@H](CCc3ccc(C(F)(F)F)c(OC)c3)C(=O)N2C1 [PP2173] | A (a compound having 10 or more and less than 20 is denoted as A) | 19.9 | A (a compound having 10 or more and less than 20 is denoted as A) |  |  |  |  |
| CCCN1C(=O)CN(C)C(=O)[C@H]2N(CC2(C)C)C(=O)[C@H]([C@@H](C)CC)NC(=O)[C@H](CC(C)C)N(C)C(=O)C[C@@H](C(=O)N2CCOCC2)N(C)C(=O)[C@H](C2CCCC2)N(C)C(=O)C2(CCCC2)NC(=O)[C@@H]2CCCN2C(=O)[C@H](CCc2ccc(C(F)(F)F)c(Cl)c2)NC(=O)CN(C)C(=O)[C@@H]1Cc1ccc(C(F)(F)F)cc1 [PP0256] ([NMeL]I[X9][Sar][NPrPhe(4-CF3)][Sar][hPhe(3-Cl-4-CF3)]P[Ac5c][NMeGly(cPent)][NMeD]-Morpholide; lactam N-11) |  | 26.6 |  |  |  | C (A compound having a KD ratio of 0.1 or more and less than 3 is denoted as C) | B (a compound having 3 or more and less than 10 is denoted as B) |
| CCO[C@@H]1C[C@H]2C(=O)NC3(CCC3)C(=O)N(C)[C@@H](C(CC)CC)C(=O)N(C)[C@H](CC)CC(=O)N(C)[C@@H](CC3CC3)C(=O)N[C@@H]([C@@H](C)CC)C(=O)N(C)CC(=O)N(C)[C@H]3C/C=C\CCN(C3=O)[C@@H](Cc3ccc(C(F)(F)F)cc3)C(=O)N(C)CC(=O)N[C@@H](CCc3cc(F)c(C(F)(F)F)c(F)c3)C(=O)N2C1 [PP1630] |  | 144 |  | A (a compound having 10 or more and less than 20 is denoted as A) | A (a compound having 10 or more and less than 20 is denoted as A) |  |  |
| CCCN1C(=O)[C@@H]2CCN2C(=O)[C@H](C)N(C)C(=O)[C@H]([C@@H](C)CC)NC(=O)[C@H](CC(C)C)N(CC)C(=O)C[C@@H](C(=O)N2CCOCC2)N(C)C(=O)[C@H](C2CCCC2)N(C)C(=O)C2(CCCC2)NC(=O)[C@@H]2CCCN2C(=O)[C@H](CCc2ccc(C(F)(F)F)c(Cl)c2)NC(=O)CN(C)C(=O)[C@@H]1Cc1ccc(C(F)(F)F)cc1 [PP0151] ([NEtLeu]I[NMeA][Aze][NPrPhe(4-CF3)][Sar][hPhe(3-Cl-4-CF3)]P[Ac5c][NMeGly(cPent)][NMeD]-Morpholide; lactam N-11) |  | 5.3 |  |  |  | C (A compound having a KD ratio of 0.1 or more and less than 3 is denoted as C) | C (A compound having a KD ratio of 0.1 or more and less than 3 is denoted as C) |
